In US4020076A, “Novel phosphoryloxy-thiazoles” (priority 1974, dated 1977):
Like-named read-outs stand apart in the source and are kept apart here.

Legend:
Type in all cases: in vivo
Sitophilus granarius = assay: Topical application test against Sitophilus granarius; conditions: read-out: percent mortality
Protocol: c. Test against Sitophilus granarius
This topical application test comprised preparing the test compounds in acetone solution at concentrations of 5000, 500 and 50 mg of the active compound per liter and 0.2 μl of the solutions were applied to the ventral thorax of 50 Sitophilus granarius for each concentration.

Meloidogynes spec = assay: Nematocidal activity against Meloidogynes spec (tomato root galls); conditions: 25 Kg/ha
Protocol: a. Activity against Meloidogynes spec
A volume of about 3 liters of dirt infested with Meloidogynes spec was placed in a plastic sack. Nematocidal treatments are considered effective to a depth of 30 cm, a volume of 3 liters of dirt corresponding to a surface area of 100 cm^ 2 or 10^-^6 ha (since 100 cm^ 2 × 30 cm = 3000 ml or 3 liters). Each volume of infested dirt received 100 ml of an aqueous suspension containing 0.250 g of the test product (corresponding to 250 Kg/ha) and the controls received only 100 ml of water. The plastic sacks containing the dirt were immediately sealed after the treatment and then agitated to obtain a good distribution of the product. Two weeks after the treatment, the sacks were opened and the dirt was used to plant 3 tomato plants of St. Pierre variety. The plants used were raised in the greenhouse with dirt sterilized with heat to obtain plants free of nematodes. Three plants were used for each test which was run 6 times for each treatment. Two months after planting the tomatoes were removed from the dirt and the efficacy was determined by counting the number of galls observed on the roots. A correlation between the population of Meloidogynes in the pot and the number of galls exists.

Musca domestica = assay: Topical application activity against Musca domestica; conditions: read-out: percent of mortality
Protocol: d. Activity against Musca domestica
This topical application test consisted of placing a microliter of an acetone solution of the test product on the dorsal thorax of Musca domestica after having been put to sleep with ether. The insects were held at 20° C and 50% relative humidity and were fed milk and water.

Blattella germanica = assay: Topical application activity against Blattella germanica; conditions: read-out: percent of mortality
Protocol: b. Activity against Blattella germanica
This test was a topical application in which adult male Blattella germanica received 2 microliters of an acetone solution of the test products between the second and third pair of paws. After this treatment, the test insects were held in a dim light at 20° C and were fed. The results expressed as percent of mortality in Table II were read 24 and 48 hours and 5 days after the treatment.

Musca domestica larvae = assay: Contact-ingestion test against Musca domestica larvae; conditions: read-out: percent of mortality
Protocol: g. Activity against Musca domestica larvae
This contact-ingestion test consisted of placing 2 ml of an acetone solution of different concentrations of the test product on 1 g of bran placed in a watch glass and the solvent was evaporated. The treated bran was placed in a plastic dish and was admixed with 2 ml of milk. 20 3 to 4 day old larvae of Musca domestica were added to the bran and were held at 20° C and 30% relative humidity and 3 tests were conducted for each concentration.

Drosophila melanogaster = assay: Vapor activity against Drosophila melanogaster; conditions: inhaled or nasal, read-out: percentage of mortality
Protocol: a. Activity against Drosophila melanogaster
This test measures the vapor activity of the compounds and the less than 48 hours old insects were placed in a Petri dish with a 10 cm diameter connected by a tergal screen to a crystallizer of the same diameter in which the test compound in acetone solution is placed. The said solution is evaporated after the insects have been placed and 3 tests with 25 insects were run for each concentration. The results are expressed in Table I as a percentage of mortality after 1, 2, 4 and 6 hours.

[1] = system: Ditylenchus Myceliophagus; assay: Acaricide activity, Ditylenchus Myceliophagus; conditions: 24 h, read-out: Percent of mortality after 24 hours
Protocol: In an apparatus containing 10 ml of an aqueous solution of the test product, 0.5 ml of water containing about 2000 acariens of Ditylenchus Myceliophagus were added thereto and the percent of mortality was determined by a binocular magnifying glass after 24 hours.

Spodoptera littoralis = assay: Ingestion test against Spodoptera littoralis caterpillars; conditions: po, read-out: percent of mortality
Protocol: e. Activity against Spodoptera littoralis
This test was effected with Spodoptera littoralis caterpillars 1 to 1.5 cm long and an average of 10 days old. In this ingestion test, 4 ml of an acetone solution of the test products was placed on lettuce rings with an 8 mm diameter which were placed in closed plastic dishes with a 5 cm diameter. 15 caterpillars were placed in each dish and were held at 20° C and 50% relative humidity and were fed when the insects had eaten the treated lettuce ring.

Question: How did the mortality at 5000 ppm (Sitophilus granarius; 4 H) turn out when `CCOc1nc(OP(=O)(OC)OC)c(C#N)s1` [Compound D, 2-ethoxy-4-dimethoxyphosphoryloxy-5-cyano-thiazole] was run?
Answer: 100%

Question: What about the mortality at 5000 ppm (Sitophilus granarius; 24 H) of the same molecule?
Answer: 100%

Question: And the mortality at 5000 ppm (Sitophilus granarius; 120 h, 5 Days)?
Answer: 100%

Question: And the “Relative efficacity in % as compound to controls” value (Meloidogynes spec)?
Answer: 52.8%

Question: What about the “Number of galls per foot” value (Meloidogynes spec; control 44.4) of the same molecule?
Answer: 31.25

Question: And the “Total number of galls” value (Meloidogynes spec; control 222)?
Answer: 125

Question: And the mortality at 5000 ppm (Musca domestica; 24 H)?
Answer: 64%

Question: And the mortality at 5000 ppm (Blattella germanica; 24 H)?
Answer: 100%

Question: And the mortality at 5000 ppm (Blattella germanica; 48 H)?
Answer: 100%

Question: What about the mortality at 5000 ppm (Blattella germanica; 120 h, 5 Days) of the same molecule?
Answer: 100%

Question: And the mortality at 5000 ppm (Musca domestica larvae; 192 h, 8 Days)?
Answer: 90%

Question: What about the mortality at 500 ppm (Drosophila melanogaster; 2 H) of the same molecule?
Answer: 100%

Question: And the mortality at 500 ppm (Drosophila melanogaster; 6 H)?
Answer: 100%

Question: `CCOc1nc(OP(=S)(OCC)OCC)c(C#N)s1` [A, 2-ethoxy-4-diethoxythiophosphoryloxy-5-cyano-thiazole] was tested. Which mortality at 1 µg/mL ([1]; 0.001 g/l) did it give?
Answer: 81.8%

Question: What about the mortality at 10 µg/mL ([1]; 0.010 g/l) of the same molecule?
Answer: 91.6%

Question: And the mortality at 100 µg/mL ([1]; 0.1 g/l)?
Answer: 100%

Question: What about the mortality at 50 ppm (Sitophilus granarius; 4 H) of the same molecule?
Answer: 0%

Question: And the mortality at 500 ppm (Sitophilus granarius; 4 H)?
Answer: 100%

Question: What about the mortality at 5000 ppm (Sitophilus granarius; 4 H) of the same molecule?
Answer: 100%

Question: And the mortality at 50 ppm (Sitophilus granarius; 24 H)?
Answer: 0%

Question: And the mortality at 500 ppm (Sitophilus granarius; 24 H)?
Answer: 100%

Question: And the mortality at 5000 ppm (Sitophilus granarius; 24 H)?
Answer: 100%

Question: What about the mortality at 50 ppm (Sitophilus granarius; 120 h, 5 Days) of the same molecule?
Answer: 0%

Question: And the mortality at 500 ppm (Sitophilus granarius; 120 h, 5 Days)?
Answer: 100%

Question: What about the mortality at 5000 ppm (Sitophilus granarius; 120 h, 5 Days) of the same molecule?
Answer: 100%

Question: And the mortality at 500 ppm (Musca domestica; 1 H)?
Answer: 91%

Question: What about the mortality at 2500 ppm (Musca domestica; 1 H) of the same molecule?
Answer: 100%

Question: And the mortality at 5000 ppm (Musca domestica; 1 H)?
Answer: 100%

Question: What about the mortality at 500 ppm (Musca domestica; 24 H) of the same molecule?
Answer: 94%

Question: And the mortality at 2500 ppm (Musca domestica; 24 H)?
Answer: 100%

Question: And the mortality at 5000 ppm (Musca domestica; 24 H)?
Answer: 100%

Question: What about the mortality at 62.5 ppm (Spodoptera littoralis; 1 H, 62.5 ppm, ingestion) of the same molecule?
Answer: 0%

Question: What about the mortality at 125 ppm (Spodoptera littoralis; 1 H, 125 ppm, ingestion) of the same molecule?
Answer: 0%

Question: What about the mortality at 250 ppm (Spodoptera littoralis; 1 H, 250 ppm, ingestion) of the same molecule?
Answer: 0%

Question: And the mortality at 62.5 ppm (Spodoptera littoralis; 48 H, 62.5 ppm, ingestion)?
Answer: 80%

Question: And the mortality at 125 ppm (Spodoptera littoralis; 48 H, 125 ppm, ingestion)?
Answer: 100%

Question: And the mortality at 250 ppm (Spodoptera littoralis; 48 H, 250 ppm, ingestion)?
Answer: 100%

Question: What about the mortality at 62.5 ppm (Spodoptera littoralis; 24 h) of the same molecule?
Answer: 60%

Question: What about the mortality at 125 ppm (Spodoptera littoralis; 24 h) of the same molecule?
Answer: 100%

Question: What about the mortality at 250 ppm (Spodoptera littoralis; 24 h) of the same molecule?
Answer: 90%

Question: What about the mortality at 312.5 ppm (Blattella germanica; 24 H) of the same molecule?
Answer: 65%

Question: What about the mortality at 625 ppm (Blattella germanica; 24 H, 625 ppm) of the same molecule?
Answer: 100%

Question: What about the mortality at 1250 ppm (Blattella germanica; 24 H, 1250 ppm) of the same molecule?
Answer: 100%

Question: And the mortality at 312.5 ppm (Blattella germanica; 48 H)?
Answer: 70%

Question: What about the mortality at 625 ppm (Blattella germanica; 48 H, 625 ppm) of the same molecule?
Answer: 100%

Question: What about the mortality at 1250 ppm (Blattella germanica; 48 H, 1250 ppm) of the same molecule?
Answer: 100%

Question: What about the mortality at 625 ppm (Blattella germanica; 120 h) of the same molecule?
Answer: 30%

Question: And the mortality at 1250 ppm (Blattella germanica; 120 h)?
Answer: 100%

Question: And the mortality at 500 ppm (Musca domestica larvae; 48 H)?
Answer: 37%

Question: And the mortality at 5000 ppm (Musca domestica larvae; 48 H)?
Answer: 64%

Question: And the mortality at 500 ppm (Musca domestica larvae; 192 h, 8 Days)?
Answer: 63%

Question: And the mortality at 5000 ppm (Musca domestica larvae; 192 h, 8 Days)?
Answer: 92%

Question: And the mortality at 5 ppm (Drosophila melanogaster; 1 H)?
Answer: 99%

Question: What about the mortality at 50 ppm (Drosophila melanogaster; 1 H) of the same molecule?
Answer: 100%

Question: What about the mortality at 500 ppm (Drosophila melanogaster; 1 H) of the same molecule?
Answer: 100%

Question: And the mortality at 5 ppm (Drosophila melanogaster; 4 H)?
Answer: 100%

Question: What about the mortality at 50 ppm (Drosophila melanogaster; 4 H) of the same molecule?
Answer: 100%

Question: And the mortality at 500 ppm (Drosophila melanogaster; 4 H)?
Answer: 100%

Question: And the mortality at 5 ppm (Drosophila melanogaster; 6 H)?
Answer: 100%

Question: What about the mortality at 50 ppm (Drosophila melanogaster; 6 H) of the same molecule?
Answer: 100%

Question: And the mortality at 500 ppm (Drosophila melanogaster; 6 H)?
Answer: 100%
